Earlier results, collected in US4496540A, “Therapeutic compounds” (Biomeasure, Inc., priority 1982, dated 1985).

Tested on: enkephalinase

inhibition of enkephalinase (known inhibitors, Llorens et al. (1981)): inhibited
SMILES: O=C(O)CNC(=O)C(CS)Cc1ccccc1 (racemic) [Thiorphan, (DL-3-mercapto-2-benzylpropanoyl) glycine]
protection of the enkephalins from the action of enkephalinase in vitro (in vitro, Roques et al. (1980)): protects the enkephalins from the action of enkephalinase in vitro in nanomolar concentration
